Results published in ChEMBL document CHEMBL1777681, “Structure and activity relationships of tartrate-based TACE inhibitors” (Bioorg Med Chem Lett, 2010).

What was measured:
[1] = target: T1, Disintegrin and metalloproteinase domain-containing protein 17 (Homo sapiens, UniProt P78536); assay: Inhibition of TACE
[2] = target: T1, Disintegrin and metalloproteinase domain-containing protein 17; assay: Inhibition of TACE at 500 nM
[3] = target: Matrix metalloproteinase-9 (Homo sapiens, UniProt P14780); assay: Inhibition of MMP9
Sequence of Matrix metalloproteinase-9 (P14780 whole entry): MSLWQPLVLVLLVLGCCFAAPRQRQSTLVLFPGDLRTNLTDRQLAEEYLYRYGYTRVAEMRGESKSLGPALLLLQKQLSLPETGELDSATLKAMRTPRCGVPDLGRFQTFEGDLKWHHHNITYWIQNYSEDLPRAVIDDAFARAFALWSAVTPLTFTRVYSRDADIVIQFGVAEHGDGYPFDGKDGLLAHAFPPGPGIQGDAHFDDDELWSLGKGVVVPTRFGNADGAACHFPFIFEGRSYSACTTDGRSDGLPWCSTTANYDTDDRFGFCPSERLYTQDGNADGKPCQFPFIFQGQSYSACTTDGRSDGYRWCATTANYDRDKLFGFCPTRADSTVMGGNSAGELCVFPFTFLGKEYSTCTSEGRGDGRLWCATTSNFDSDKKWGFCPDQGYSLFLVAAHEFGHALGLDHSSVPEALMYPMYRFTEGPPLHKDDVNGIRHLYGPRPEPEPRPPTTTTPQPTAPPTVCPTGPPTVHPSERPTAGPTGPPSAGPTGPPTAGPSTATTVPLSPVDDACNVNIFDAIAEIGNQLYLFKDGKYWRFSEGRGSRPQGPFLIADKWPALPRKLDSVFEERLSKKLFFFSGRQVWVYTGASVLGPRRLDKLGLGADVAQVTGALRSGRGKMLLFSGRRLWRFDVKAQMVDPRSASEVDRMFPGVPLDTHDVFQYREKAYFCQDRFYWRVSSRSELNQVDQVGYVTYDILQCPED

Stromelysin-1 = Stromelysin-1 (Homo sapiens, UniProt P08254); assay: Inhibition of MMP3
Sequence of Stromelysin-1 (P08254 whole entry): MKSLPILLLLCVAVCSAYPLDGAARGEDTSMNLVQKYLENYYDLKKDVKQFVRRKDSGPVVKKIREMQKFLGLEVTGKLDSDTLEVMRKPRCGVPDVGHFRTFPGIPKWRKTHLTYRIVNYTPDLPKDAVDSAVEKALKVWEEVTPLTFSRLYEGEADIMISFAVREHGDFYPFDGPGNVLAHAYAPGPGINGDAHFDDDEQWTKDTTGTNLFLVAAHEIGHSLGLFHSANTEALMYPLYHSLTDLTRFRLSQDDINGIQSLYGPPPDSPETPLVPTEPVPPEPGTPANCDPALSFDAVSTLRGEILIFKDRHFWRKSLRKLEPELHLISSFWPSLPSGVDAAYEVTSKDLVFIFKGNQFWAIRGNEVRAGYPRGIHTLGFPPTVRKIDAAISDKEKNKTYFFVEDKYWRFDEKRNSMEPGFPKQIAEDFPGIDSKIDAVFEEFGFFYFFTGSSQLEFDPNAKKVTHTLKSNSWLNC

[4] = target: 72 kDa type IV collagenase (Homo sapiens, UniProt P08253); assay: Inhibition of MMP2
Sequence of 72 kDa type IV collagenase (P08253 whole entry): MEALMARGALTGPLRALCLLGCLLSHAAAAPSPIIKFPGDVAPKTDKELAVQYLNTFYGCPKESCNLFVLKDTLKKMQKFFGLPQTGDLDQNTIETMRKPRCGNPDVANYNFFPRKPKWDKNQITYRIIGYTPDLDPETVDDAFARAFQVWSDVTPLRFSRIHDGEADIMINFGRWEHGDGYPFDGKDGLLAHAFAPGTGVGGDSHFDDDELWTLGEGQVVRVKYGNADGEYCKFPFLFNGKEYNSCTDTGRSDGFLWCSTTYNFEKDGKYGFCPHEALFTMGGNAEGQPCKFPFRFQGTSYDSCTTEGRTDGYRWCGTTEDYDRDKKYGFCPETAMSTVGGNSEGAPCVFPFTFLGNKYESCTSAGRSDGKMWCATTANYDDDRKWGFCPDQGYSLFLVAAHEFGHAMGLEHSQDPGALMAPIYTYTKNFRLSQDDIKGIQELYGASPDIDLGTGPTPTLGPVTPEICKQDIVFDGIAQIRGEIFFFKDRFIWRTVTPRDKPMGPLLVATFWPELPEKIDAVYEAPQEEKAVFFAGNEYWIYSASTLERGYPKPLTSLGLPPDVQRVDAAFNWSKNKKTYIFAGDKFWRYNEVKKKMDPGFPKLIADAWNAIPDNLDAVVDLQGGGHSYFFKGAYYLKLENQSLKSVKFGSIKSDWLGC

Collagenase 3 = Collagenase 3 (Homo sapiens, UniProt P45452); assay: Inhibition of MMP13
Interstitial collagenase = target: T2, Interstitial collagenase (Homo sapiens, UniProt P03956); assay: Inhibition of MMP1
T2 sequence (P03956 whole entry): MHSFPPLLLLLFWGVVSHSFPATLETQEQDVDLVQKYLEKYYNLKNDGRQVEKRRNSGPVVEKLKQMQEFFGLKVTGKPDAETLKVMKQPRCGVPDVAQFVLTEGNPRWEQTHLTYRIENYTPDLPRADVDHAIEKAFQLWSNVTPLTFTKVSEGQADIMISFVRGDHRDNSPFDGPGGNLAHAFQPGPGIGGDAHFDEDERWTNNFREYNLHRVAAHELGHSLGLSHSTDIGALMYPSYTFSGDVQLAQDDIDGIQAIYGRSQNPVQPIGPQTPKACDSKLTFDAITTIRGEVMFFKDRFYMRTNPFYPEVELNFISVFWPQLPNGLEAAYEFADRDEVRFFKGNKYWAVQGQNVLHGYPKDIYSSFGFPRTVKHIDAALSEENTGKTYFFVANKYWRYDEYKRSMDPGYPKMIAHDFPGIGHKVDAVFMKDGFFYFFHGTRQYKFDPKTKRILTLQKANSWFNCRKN

Matrilysin = target: T3, Matrilysin (Homo sapiens, UniProt P09237); assay: Inhibition of MMP7
T3 sequence (P09237 whole entry): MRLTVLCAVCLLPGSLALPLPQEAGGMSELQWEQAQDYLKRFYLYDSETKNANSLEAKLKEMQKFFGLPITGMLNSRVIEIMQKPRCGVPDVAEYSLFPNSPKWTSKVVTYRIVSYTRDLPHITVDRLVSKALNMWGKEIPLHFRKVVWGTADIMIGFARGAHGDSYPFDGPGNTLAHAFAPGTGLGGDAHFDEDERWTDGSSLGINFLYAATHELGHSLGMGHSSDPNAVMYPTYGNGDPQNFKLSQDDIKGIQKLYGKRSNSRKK

[5] = target: T4, Disintegrin and metalloproteinase domain-containing protein 10 (Homo sapiens, UniProt O14672); assay: Inhibition of ADAM10
T4 sequence (O14672 whole entry): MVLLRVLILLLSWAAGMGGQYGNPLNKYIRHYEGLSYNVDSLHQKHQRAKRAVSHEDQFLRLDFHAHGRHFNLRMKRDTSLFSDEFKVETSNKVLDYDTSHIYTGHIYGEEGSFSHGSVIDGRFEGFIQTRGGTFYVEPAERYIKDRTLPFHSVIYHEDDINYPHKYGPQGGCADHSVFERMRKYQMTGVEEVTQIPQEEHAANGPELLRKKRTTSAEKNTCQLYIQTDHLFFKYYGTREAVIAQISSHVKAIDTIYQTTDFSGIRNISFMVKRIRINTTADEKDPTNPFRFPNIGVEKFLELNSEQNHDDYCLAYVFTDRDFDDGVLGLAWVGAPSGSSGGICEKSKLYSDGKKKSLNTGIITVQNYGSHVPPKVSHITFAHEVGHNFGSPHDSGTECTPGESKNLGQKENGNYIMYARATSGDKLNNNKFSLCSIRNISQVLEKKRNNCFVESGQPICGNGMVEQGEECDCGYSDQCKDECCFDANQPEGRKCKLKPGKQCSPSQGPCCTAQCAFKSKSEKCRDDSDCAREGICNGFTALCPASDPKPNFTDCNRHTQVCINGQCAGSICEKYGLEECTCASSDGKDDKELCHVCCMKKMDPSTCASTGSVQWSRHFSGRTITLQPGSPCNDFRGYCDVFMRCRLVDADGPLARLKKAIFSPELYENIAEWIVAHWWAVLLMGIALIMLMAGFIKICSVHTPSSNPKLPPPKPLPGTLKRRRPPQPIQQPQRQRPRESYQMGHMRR

[6] = target: Matrix metalloproteinase-14 (Homo sapiens, UniProt P50281); assay: Inhibition of MMP14
[7] = Bioavailability in Sprague-Dawley rat at 10 mg/kg, po; assay type: ADME, organism-based; settings: in vivo
[8] = Half life in Sprague-Dawley rat at 10 mg/kg, po; assay type: ADME, organism-based; design: dose 10 mg/kg, route oral; settings: in vivo
[9] = Clearance in Sprague-Dawley rat at 3 mg/kg, iv; assay type: ADME, organism-based; design: dose 3 mg/kg, route intravenous; settings: in vivo
[10] = AUC in Sprague-Dawley rat at 3 mg/kg, iv; assay type: ADME, organism-based; design: dose 3 mg/kg, route intravenous; settings: plasma
[11] = AUC in Sprague-Dawley rat at 10 mg/kg, po; assay type: ADME, organism-based; design: dose 10 mg/kg, route oral; settings: plasma

T1 sequence (P78536 whole entry, the tested form may be a part): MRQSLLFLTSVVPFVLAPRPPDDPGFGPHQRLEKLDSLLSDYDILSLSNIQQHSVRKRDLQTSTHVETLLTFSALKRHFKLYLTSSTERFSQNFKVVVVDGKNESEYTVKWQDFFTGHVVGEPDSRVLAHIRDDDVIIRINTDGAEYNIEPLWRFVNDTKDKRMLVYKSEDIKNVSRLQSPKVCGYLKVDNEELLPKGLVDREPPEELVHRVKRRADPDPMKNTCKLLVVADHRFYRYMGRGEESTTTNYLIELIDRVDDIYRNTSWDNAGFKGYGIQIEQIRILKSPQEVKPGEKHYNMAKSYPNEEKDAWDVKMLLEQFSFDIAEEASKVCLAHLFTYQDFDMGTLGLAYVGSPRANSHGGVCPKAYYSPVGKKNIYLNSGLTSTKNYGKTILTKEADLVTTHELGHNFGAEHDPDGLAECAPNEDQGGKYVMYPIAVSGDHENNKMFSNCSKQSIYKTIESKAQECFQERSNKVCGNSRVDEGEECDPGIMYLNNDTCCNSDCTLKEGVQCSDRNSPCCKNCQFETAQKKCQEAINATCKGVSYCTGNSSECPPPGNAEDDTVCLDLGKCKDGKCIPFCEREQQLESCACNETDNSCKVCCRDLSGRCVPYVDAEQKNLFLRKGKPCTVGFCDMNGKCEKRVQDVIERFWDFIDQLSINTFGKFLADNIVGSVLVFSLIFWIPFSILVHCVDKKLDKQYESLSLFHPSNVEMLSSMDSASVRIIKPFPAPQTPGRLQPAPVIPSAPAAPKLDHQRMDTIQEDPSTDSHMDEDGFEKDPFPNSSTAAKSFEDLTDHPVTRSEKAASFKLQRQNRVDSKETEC

Structure (SMILES)	Ki [1] [nM]	further results
N#Cc1ccccc1N1CC2C(CNC(=O)[C@H](O)[C@@H](O)C(=O)N3CCC[C@@H]3c3ccccc3)C2C1 (stereo partly specified)	12	–
O=C(NCc1ccc(Cc2cccc3ccccc23)s1)[C@H](O)[C@@H](O)C(=O)N1CCC[C@@H]1c1cccc(Cl)c1	–	inhibition [2]: 50%
Cc1nc2ccccc2n1Cc1ccc(CNC(=O)[C@H](O)[C@@H](O)C(=O)N2Cc3ccccc3C2)s1	0.5	–
O=C(NCc1ccc(-c2ccsc2)cc1)[C@H](O)[C@@H](O)C(=O)N1CCC[C@@H]1c1ccccc1	13	–
C[C@H]1CN(c2ccccc2C#N)CCC1CNC(=O)[C@H](O)[C@@H](O)C(=O)N1CCC[C@@H]1c1ccccc1 (stereo partly specified)	315	–
O=C(NCc1ccc(-c2csnn2)cc1)[C@H](O)[C@@H](O)C(=O)N1CCCC1c1cccc(Cl)c1 (mixture of isomers)	3	–
Cc1nc2ccccc2n1Cc1ccc(CNC(=O)[C@H](O)[C@@H](O)C(=O)N2CCCC2c2cccs2)s1 (mixture of isomers)	4	–
O=C(NCc1ccc(Cc2ccccc2)s1)[C@H](O)[C@@H](O)C(=O)N1CCC[C@@H]1c1cccc(Cl)c1	20	–
O=C(NCc1cccs1)[C@H](O)[C@@H](O)C(=O)N1CCCC1c1cccc(Cl)c1 (stereo partly specified)	–	inhibition [2]: 44%
O=C(NCc1ccc(Cc2ccsc2)s1)[C@H](O)[C@@H](O)C(=O)N1CCC[C@@H]1c1cccc(Cl)c1	11	–
O=C(NCc1ccc(Cc2cccc(Cl)c2)s1)[C@H](O)[C@@H](O)C(=O)N1CCC[C@@H]1c1cccc(Cl)c1	48	–
O=C(NCc1ccc(-c2cccs2)cc1)[C@H](O)[C@@H](O)C(=O)N1CCC[C@@H]1c1ccccc1	28	–
O=C(NCc1ccc(-n2cccn2)cc1)[C@H](O)[C@@H](O)C(=O)N1CCCC1c1cccc(Cl)c1 (mixture of isomers)	4	Ki [3]: 11 µM; Ki (Stromelysin-1): 19 µM; Ki [4]: 1.9 µM; Ki (Collagenase 3): 3.5 µM; Ki (Interstitial collagenase): > 100 µM; Ki (Matrilysin): 47 µM; Ki [5]: 602 nM; Ki [6]: 120 nM
O=C(NCc1cc(Cc2ccccc2)cs1)[C@H](O)[C@@H](O)C(=O)N1CCCC1c1cccc(Cl)c1 (stereo partly specified)	45	–
Cc1nc2ccccc2n1Cc1ccc(CNC(=O)[C@H](O)[C@@H](O)C(=O)N2CCCC2c2ccccn2)s1 (mixture of isomers)	8	–
C[C@@H](NC(=O)[C@H](O)[C@@H](O)C(=O)N1CCC[C@@H]1c1cccc(Cl)c1)c1ccc(-n2cccn2)cc1	0.86	Ki [3]: 88.4 µM; bioavailability [7]: 20%; half-life [8]: 36 min; Ki [4]: 43.6 µM; Ki (Collagenase 3): 3.3 µM; Ki (Interstitial collagenase): > 100 µM; Ki (Matrilysin): 3.8 µM; clearance [9]: 35 mL/min/kg; Ki [5]: 166 nM; AUC [10]: 3.1 µM·h; Ki [6]: 1100 nM; AUC [11]: 2.1 µM·h
Cc1nc2ccccc2n1-c1ccc(CNC(=O)[C@H](O)[C@@H](O)C(=O)N2CCCC2c2cccc(Cl)c2)cc1 (mixture of isomers)	296	–
N#Cc1ccccc1N1CCC(CNC(=O)[C@H](O)[C@@H](O)C(=O)N2CCCC2c2cccc(Cl)c2)CC1 (mixture of isomers)	4	–
C[C@@H]1CN(c2ccccc2C#N)CCC1CNC(=O)[C@H](O)[C@@H](O)C(=O)N1CCC[C@@H]1c1ccccc1 (stereo partly specified)	2	–
Cc1nc2ccccc2n1Cc1ccc(CNC(=O)[C@H](O)[C@@H](O)C(=O)N2CCC[C@@H]2c2cccc(Cl)c2)s1	4	–
COc1ccccc1Cc1ccc(CNC(=O)[C@H](O)[C@@H](O)C(=O)N2CCC[C@@H]2c2cccc(Cl)c2)s1	3	–
N#Cc1sccc1-c1ccc(CNC(=O)[C@H](O)[C@@H](O)C(=O)N2CCC[C@@H]2c2ccccc2)cc1	2	–
O=C(NCc1ccc(-n2ccnc2)cc1)[C@H](O)[C@@H](O)C(=O)N1CCCC1c1cccc(Cl)c1 (mixture of isomers)	270	–
Cc1nc2ccccc2n1Cc1ccc(CNC(=O)[C@H](O)[C@@H](O)C(=O)N2CCCC2c2ccncc2)s1 (mixture of isomers)	36	–

Continued, in another order:

Ki [1] [nM]	Structure (SMILES)	further results
9	Cc1nc2ccccc2n1Cc1ccc(CNC(=O)[C@H](O)[C@@H](O)C(=O)N2CCCC2c2nccs2)s1 (mixture of isomers)	–
5	N#Cc1cnccc1-c1ccc(CNC(=O)[C@H](O)[C@@H](O)C(=O)N2CCC[C@@H]2c2ccccc2)cc1	–
37	O=C(NCc1ccc(Cc2ccc(Cl)cc2)s1)[C@H](O)[C@@H](O)C(=O)N1CCC[C@@H]1c1cccc(Cl)c1	–
17	N#Cc1ccccc1-c1ccc(CNC(=O)[C@H](O)[C@@H](O)C(=O)N2CCC[C@@H]2c2ccccc2)cc1	–
15	O=C(NCc1ccc(-c2ccncc2)cc1)[C@H](O)[C@@H](O)C(=O)N1CCC[C@@H]1c1ccccc1	–
37	O=C(NCc1ccc(Cn2ccnc2)s1)[C@H](O)[C@@H](O)C(=O)N1CCC[C@@H]1c1cccc(Cl)c1	–
307	O=C(NCc1ccc(-c2ccccc2)nc1)[C@H](O)[C@@H](O)C(=O)N1CCCC1c1cccc(Cl)c1 (mixture of isomers)	–
22	O=C(NCc1ccc(-c2ccccc2)cc1)[C@H](O)[C@@H](O)C(=O)N1CCC[C@@H]1c1ccccc1	–
12	Cc1nc2ccccc2n1Cc1ccc(CNC(=O)[C@H](O)[C@@H](O)C(=O)N2CCCC2c2cccnc2)s1 (mixture of isomers)	–
18	O=C(NCc1ccc(-c2cscn2)cc1)[C@H](O)[C@@H](O)C(=O)N1CCCC1c1cccc(Cl)c1 (mixture of isomers)	–
74	O=C(NCc1ccc(-c2nccs2)cc1)[C@H](O)[C@@H](O)C(=O)N1CCCC1c1cccc(Cl)c1 (mixture of isomers)	–
8	O=C(NCc1ccc(-c2ccon2)cc1)[C@H](O)[C@@H](O)C(=O)N1CCC[C@@H]1c1ccccc1	–
36	O=C(NCc1ccc(-c2cccnc2)cc1)[C@H](O)[C@@H](O)C(=O)N1CCC[C@@H]1c1ccccc1	–
0.2	O=C(NCc1ccc(Cn2c(C(F)(F)F)nc3ccccc32)s1)[C@H](O)[C@@H](O)C(=O)N1Cc2ccccc2C1	–
2	Cc1nc2ccccc2n1Cc1ccc(CNC(=O)[C@H](O)[C@@H](O)C(=O)N2CCC[C@@H]2c2csc(N)n2)s1	–
9.3	O=C(NCc1ccc(Cc2ccccc2Cl)s1)[C@H](O)[C@@H](O)C(=O)N1CCC[C@@H]1c1cccc(Cl)c1	–
6	O=C(NCc1ccc(-c2ccccc2)cn1)[C@H](O)[C@@H](O)C(=O)N1CCCC1c1cccc(Cl)c1 (mixture of isomers)	–
